# Patent US20240139211A1, “METHODS AND COMPOSITIONS FOR TREATING AMYOTROPHIC LATERAL SCLEROSIS” (Amylyx Pharmaceuticals, Inc., priority 2022, published 2024)
# Legend:
# hrCYP2C8 = target: T1, hrCYP2C8 (Homo sapiens, UniProt P10632); assay: CYP reaction phenotyping with hrCYP2C8 (% remaining); assay type: in vitro ADME; settings: human, 1 h, 5 µM, pH 7.4
# T1 sequence (P10632 1-490): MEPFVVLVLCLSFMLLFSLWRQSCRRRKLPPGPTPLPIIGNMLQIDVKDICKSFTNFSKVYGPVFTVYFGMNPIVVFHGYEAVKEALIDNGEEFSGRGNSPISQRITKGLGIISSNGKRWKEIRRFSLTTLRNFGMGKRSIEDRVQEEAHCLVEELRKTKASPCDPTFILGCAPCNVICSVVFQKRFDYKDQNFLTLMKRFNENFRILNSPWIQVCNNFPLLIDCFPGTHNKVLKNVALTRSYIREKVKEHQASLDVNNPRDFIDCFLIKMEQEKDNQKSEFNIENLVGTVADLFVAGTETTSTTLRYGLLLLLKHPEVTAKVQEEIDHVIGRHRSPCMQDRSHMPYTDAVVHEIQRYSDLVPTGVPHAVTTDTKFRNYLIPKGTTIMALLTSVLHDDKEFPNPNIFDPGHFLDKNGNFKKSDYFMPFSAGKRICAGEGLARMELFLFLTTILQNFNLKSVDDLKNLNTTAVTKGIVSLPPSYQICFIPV
# hrCYP2D6 = hrCYP2D6 (Homo sapiens, UniProt P10635); assay: CYP reaction phenotyping with hrCYP2D6 (% remaining); assay type: in vitro ADME; settings: human, 1 h, 5 µM, pH 7.4
# [1] = Relevant plasma concentrations for in vitro transporter assessment; assay type: in vivo
# [2] = target: T2, CYPs in human liver microsomes (HLM) (Homo sapiens, UniProt P05177); assay: CYP reaction phenotyping in HLM with chemical inhibitors (% remaining); settings: +NADPH +furafylline (CYP1A2), pre-incubated
# T2 sequence (P05177 1-516): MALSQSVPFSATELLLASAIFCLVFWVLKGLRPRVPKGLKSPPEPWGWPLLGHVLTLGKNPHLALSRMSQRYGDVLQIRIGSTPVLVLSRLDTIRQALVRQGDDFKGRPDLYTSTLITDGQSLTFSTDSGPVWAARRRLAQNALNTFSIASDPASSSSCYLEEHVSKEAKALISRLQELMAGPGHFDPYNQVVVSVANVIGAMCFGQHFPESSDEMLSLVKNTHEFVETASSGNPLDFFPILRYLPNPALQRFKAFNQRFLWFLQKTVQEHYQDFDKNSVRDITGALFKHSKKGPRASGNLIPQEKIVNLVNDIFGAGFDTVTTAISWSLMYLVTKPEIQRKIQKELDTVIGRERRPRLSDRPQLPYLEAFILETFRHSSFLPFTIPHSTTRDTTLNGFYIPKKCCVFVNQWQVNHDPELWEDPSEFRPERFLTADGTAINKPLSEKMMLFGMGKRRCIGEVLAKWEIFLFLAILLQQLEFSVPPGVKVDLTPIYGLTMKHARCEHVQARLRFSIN
# [3] = target: CYPs in human liver microsomes (HLM) (Homo sapiens, UniProt P10635); assay: as above; settings: +NADPH +quinidine (CYP2D6)
# [4] = target: CYPs in human liver microsomes (HLM) (Homo sapiens, UniProt P11712); assay: as above; settings: +NADPH +sulfaphenazole (CYP2C9)
# [5] = target: CYPs in human liver microsomes (HLM) (Homo sapiens, UniProt P33261); assay: as above; settings: +NADPH +N3B (CYP2C19)
# [6] = test system: CYPs in human liver microsomes (HLM); assay: as above
# [7] = Rat drug-drug interaction study TDF + AMX0035: plasma pharmacokinetics; settings: Day 5, AMX0035 + TDF 840/25 mg/kg oral, male Sprague Dawley rats; individual animals; BLQ = <50 ng/mL
# CYP2B6 mRNA = assay: in vitro; settings: human
# Chain of CYPs in human liver microsomes (HLM) (Homo sapiens, UniProt P33261) (P33261 whole entry): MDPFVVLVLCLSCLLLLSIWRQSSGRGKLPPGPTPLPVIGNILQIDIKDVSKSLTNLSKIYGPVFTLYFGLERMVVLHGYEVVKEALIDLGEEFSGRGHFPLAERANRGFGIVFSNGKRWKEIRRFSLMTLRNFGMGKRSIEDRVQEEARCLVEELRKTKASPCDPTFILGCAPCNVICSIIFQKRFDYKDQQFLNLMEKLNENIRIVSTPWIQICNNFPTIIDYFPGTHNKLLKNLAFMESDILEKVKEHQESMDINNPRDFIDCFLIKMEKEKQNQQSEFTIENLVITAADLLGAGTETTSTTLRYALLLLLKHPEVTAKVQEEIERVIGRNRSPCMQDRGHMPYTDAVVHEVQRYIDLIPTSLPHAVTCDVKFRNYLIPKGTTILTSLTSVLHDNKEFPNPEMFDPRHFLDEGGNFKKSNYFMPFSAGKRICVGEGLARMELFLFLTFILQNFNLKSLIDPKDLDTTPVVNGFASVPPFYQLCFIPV
# Chain of CYPs in human liver microsomes (HLM) (Homo sapiens, UniProt P11712) (P11712 whole entry): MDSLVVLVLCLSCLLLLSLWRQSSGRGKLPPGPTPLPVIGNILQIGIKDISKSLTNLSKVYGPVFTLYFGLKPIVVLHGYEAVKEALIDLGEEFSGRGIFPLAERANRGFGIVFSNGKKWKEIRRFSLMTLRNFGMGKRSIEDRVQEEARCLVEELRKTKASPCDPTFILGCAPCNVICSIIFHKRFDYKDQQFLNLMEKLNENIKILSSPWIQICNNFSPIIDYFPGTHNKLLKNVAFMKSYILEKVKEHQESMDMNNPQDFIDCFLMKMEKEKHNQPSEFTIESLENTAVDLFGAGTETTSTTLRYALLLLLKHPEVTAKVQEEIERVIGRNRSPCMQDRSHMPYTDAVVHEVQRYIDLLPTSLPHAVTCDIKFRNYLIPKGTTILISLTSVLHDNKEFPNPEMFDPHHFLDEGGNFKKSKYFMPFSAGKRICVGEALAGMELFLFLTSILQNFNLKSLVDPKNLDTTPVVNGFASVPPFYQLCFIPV
# Chain of CYPs in human liver microsomes (HLM) (Homo sapiens, UniProt P10635) (P10635 whole entry): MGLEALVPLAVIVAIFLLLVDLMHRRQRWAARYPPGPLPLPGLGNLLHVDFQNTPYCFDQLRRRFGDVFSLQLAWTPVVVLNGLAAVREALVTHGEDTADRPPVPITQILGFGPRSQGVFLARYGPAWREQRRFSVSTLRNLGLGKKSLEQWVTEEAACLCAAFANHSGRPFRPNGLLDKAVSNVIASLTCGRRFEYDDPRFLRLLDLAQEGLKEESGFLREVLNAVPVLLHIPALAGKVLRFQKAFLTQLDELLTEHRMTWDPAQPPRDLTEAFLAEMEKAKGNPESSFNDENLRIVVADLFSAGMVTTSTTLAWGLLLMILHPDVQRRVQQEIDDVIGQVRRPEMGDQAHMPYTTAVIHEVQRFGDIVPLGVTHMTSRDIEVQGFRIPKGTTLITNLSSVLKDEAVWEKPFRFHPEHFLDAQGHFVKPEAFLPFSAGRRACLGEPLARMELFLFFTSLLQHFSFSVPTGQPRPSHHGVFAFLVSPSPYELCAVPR
# Chain of hrCYP2D6 (P10635 whole entry): as above
smiles,measurement,setting,value
"O=C(O)CCCc1ccccc1 [PB, sodium phenylbutyrate]",% remaining after 60 minutes,hrCYP2C8,greater than 90%
same,% remaining after 60 minutes,hrCYP2D6,greater than 90%
same,Plasma Cmax (total [I]1),"[1]; component of AMX0035, highest oral dose TUDCA 1000 mg, PB 3000 mg",826 µM
same,"Unbound [I]m, max","[1]; projected unbound Iin, max",326 µM
same,Unbound Cmax (Unbound [I]1),"[1]; projected, from total Cmax and plasma protein binding",148 µM
same,% remaining of TA in HLM,[2]; 5 min,116%
same,% remaining of TA in HLM,[2]; 10 min,131%
same,% remaining of TA in HLM,[2]; 20 min,125%
same,% remaining of TA in HLM,[2]; 30 min,127%
same,% remaining of TA in HLM,[2]; 60 min,128%
same,% remaining of TA in HLM,[3]; 20 min,97.5%
same,% remaining of TA in HLM,[3]; 60 min,98.8%
same,% remaining of TA in HLM,[4]; 5 min,103%
same,% remaining of TA in HLM,[4]; 20 min,98.5%
same,% remaining of TA in HLM,[4]; 30 min,99.6%
same,% remaining of TA in HLM,[4]; 60 min,97.6%
same,% remaining of TA in HLM,[5]; 5 min,101%
same,% remaining of TA in HLM,[5]; 20 min,101%
same,% remaining of TA in HLM,[5]; 30 min,101%
same,% remaining of TA in HLM,[5]; 60 min,101%
same,Metabolism by the major CYPs in HLM,[6],neither PB nor TUDCA is metabolized
same,% remaining of TA in HLM,"[6]; +NADPH +ketoconazole (CYP3A), 60 min",90.6%
same,% remaining of TA in HLM,"[6]; Maximum Metabolism-1: +NADPH −inhibitor, pre-incubated, 10 min",118%
same,% remaining of TA in HLM,"[6]; Maximum Metabolism-1: +NADPH −inhibitor, pre-incubated, 20 min",113%
same,% remaining of TA in HLM,"[6]; Maximum Metabolism-1: +NADPH −inhibitor, pre-incubated, 30 min",110%
same,% remaining of TA in HLM,"[6]; Negative Control-1: −NADPH −inhibitor, pre-incubated, 5 min",109%
same,% remaining of TA in HLM,"[6]; Negative Control-1: −NADPH −inhibitor, pre-incubated, 10 min",114%
same,% remaining of TA in HLM,"[6]; Negative Control-1: −NADPH −inhibitor, pre-incubated, 20 min",113%
same,% remaining of TA in HLM,"[6]; Negative Control-1: −NADPH −inhibitor, pre-incubated, 30 min",112%
same,% remaining of TA in HLM,"[6]; Negative Control-1: −NADPH −inhibitor, pre-incubated, 60 min",115%
same,Plasma Concentration of analyte at 8.0 hr,[7],102 ng/mL
"O=C(O)Cc1ccccc1 [Phenylacetic acid, phenylacetic acid]",EC50 at 72 h,CYP2B6 mRNA,19.5 µM
"C[C@H](CCC(=O)NCC(=O)O)[C@H]1CC[C@H]2[C@@H]3[C@@H](O)C[C@@H]4C[C@H](O)CC[C@]4(C)[C@H]3CC[C@]12C [Glycoursodeoxycholic acid, glycoursodeoxycholic acid]",EC50 at 72 h,CYP2B6 mRNA; hepatocyte cultures,1.74 µM
same,fold induction at 72 h,CYP2B6 mRNA; hepatocyte cultures,5.83
